Measured values from PubChem BioAssay AID236 (DTP/NCI, 2004).
Where “and” joins values, the source holds several entries; their conditions need not be identical. Equal entries are not always repeated. Inconclusive results and toxic doses are left out. Rule for the calls: active = survival T/C of 150% or more; inactive = T/C below 125% in these data.

System: AK4 lymphoid leukemia ip, C3AKF1 mice, survival
Assay: NCI In Vivo Anticancer Drug Screen. Data for tumor model AK4 Lymphoid Leukemia (intraperitoneal) in C3AKF1 (CHKRF1) mice
Conditions: endpoint: median survival time, higher = longer survival
Method: The antitumor activity of compounds was measured in mice bearing transplantable tumors. Survival or tumor size were measured and the results are expressed as the measurement made in the treated group (T) divided by the measurement made in the vehicle treated control group (C). The tumor model used in this assay is AK4 Lymphoid Leukemia (intraperitoneal) in C3AKF1 (CHKRF1) mice

[1] = dose: 12.5 mg/kg/injection, schedule: Q01DX010 (sc), vehicle: steriod suspending solution
[2] = dose: 25.0 mg/kg/injection, schedule: Q01DX010 (sc), vehicle: steriod suspending solution
[3] = dose: 50.0 mg/kg/injection, schedule: Q01DX010 (sc), vehicle: steriod suspending solution
[4] = dose: 100.0 mg/kg/injection, schedule: Q01DX010 (sc), vehicle: steriod suspending solution
[5] = dose: 12.5 mg/kg/injection, schedule: Q01DX010 (ip), vehicle: saline
[6] = dose: 25.0 mg/kg/injection, schedule: Q01DX010 (ip), vehicle: saline
[7] = dose: 50.0 mg/kg/injection, schedule: Q01DX010 (ip), vehicle: saline
[8] = dose: 100.0 mg/kg/injection, schedule: Q01DX010 (ip), vehicle: saline

Measured: T/C

C[C@]12C=CC(=O)C=C1CC[C@@H]1[C@@H]2[C@@H](O)C[C@@]2(C)[C@H]1CC[C@]2(O)C(=O)CO
inactive: [1] 90 % of control and 110 % of control | [2] 95 % of control | [3] 100 % of control and 105 % of control | [4] 90 % of control

N#Cc1cn(C2OC(CO)C(O)C2O)c2ncnc(N)c12 (stereo not drawn)
inactive: dose: 31.3 micrograms/kg/injection, schedule: Q01DX010 (ip), vehicle: saline 100 % of control | dose: 62.5 micrograms/kg/injection, schedule: Q01DX010 (ip), vehicle: saline 100 % of control | dose: 125.0 micrograms/kg/injection, schedule: Q01DX010 (ip), vehicle: saline 118 % of control | dose: 250.0 micrograms/kg/injection, schedule: Q01DX010 (ip), vehicle: saline 100 % of control

COS(C)(=O)=O
inactive: [5] 100 % of control and 105 % of control | [6] 100 % of control | [7] 88 % of control and 116 % of control | [8] 100 % of control and 111 % of control

CC(=O)O[C@]1(C(C)=O)CC[C@H]2[C@@H]3C[C@H](C)C4=CC(=O)C=C[C@]4(C)[C@@]3(F)[C@@H](O)C[C@@]21C
inactive: [1] 100 % of control | [2] 100 % of control | [3] 111 % of control | [4] 88 % of control and 100 % of control

N=[N+]=CC(=O)OCC(N)C(=O)O (stereo not drawn)
inactive: dose: 3.13 mg/kg/injection, schedule: Q01DX010 (ip), vehicle: saline 122 % of control | [5] 113 % of control | [6] 100 % of control and 86 % of control

OC(CBr)C(O)C(O)C(O)CBr (stereo not drawn)
inactive: [7] 100 % of control and 87 % of control | [8] 93 % of control and 87 % of control | dose: 200.0 mg/kg/injection, schedule: Q01DX010 (ip), vehicle: saline 93 % of control and 100 % of control | dose: 400.0 mg/kg/injection, schedule: Q01DX010 (ip), vehicle: saline 100 % of control

CCN(CC)c1ccc2cc3ccc(=[N+](CC)CC)cc-3oc2c1
inactive: dose: 1.0 mg/kg/injection, schedule: Q01DX010 (ip), vehicle: saline 100 % of control | dose: 2.0 mg/kg/injection, schedule: Q01DX010 (ip), vehicle: saline 100 % of control | dose: 4.0 mg/kg/injection, schedule: Q01DX010 (ip), vehicle: saline 100 % of control | dose: 8.0 mg/kg/injection, schedule: Q01DX010 (ip), vehicle: saline 100 % of control

CN(C)c1ccc(/C=C/c2ccnc3ccccc23)cc1
inactive: dose: 5.0 mg/kg/injection, schedule: Q01DX010 (ip), vehicle: saline 111 % of control | dose: 10.0 mg/kg/injection, schedule: Q01DX010 (ip), vehicle: saline 105 % of control | dose: 20.0 mg/kg/injection, schedule: Q01DX010 (ip), vehicle: saline 94 % of control | dose: 40.0 mg/kg/injection, schedule: Q01DX010 (ip), vehicle: saline 100 % of control

CCN(CC)CCNc1ccc(C)c2sc3ccccc3c(=O)c12
inactive: [6] 122 % of control | [8] 105 % of control
